Source: patent US20060141064A1, “Herbal formulation useful as local anesthetic” (priority 2004, published 2006)

Experiments:
guinea pig [1] = experiment: Local anesthetic properties, guinea pig wheal method, topical application (Table 1); assay type: in vivo; set-up: key: a positive (+) response is recorded, showing no anesthetic activity; loss in sensation (−); conditions: 2% w/w, n = 6
guinea pig [2] = experiment: Local anesthetic properties, intradermal wheal method in guinea pigs, intradermal injection (Table 2); assay type: in vivo; conditions: 2% w/w, n = 6
Protocol: Intra Dermal Wheal Method in Guinea Pigs:
The hairs on the back of guinea pigs were shaved. The normal response of the animal with a pinprick on both sides of the back was tested with 0.2 ml of the herbal formulations were injected intradermally on the left side and 0.2 ml of a normal saline (0.9%) was injected on the right side of the back. The sides were demarcated by ink. Six pinpricks were applied at interval of 2 to 3 s. Pinpricks were repeated after every 5 min. Animals showing no squeak response to all the six pinpricks were considered positive to anaesthetic effect.

With CCN(CC)CC(=O)Nc1c(C)cccc1C [Lignocaine] as the compound, how does the “Response at 0 minutes after topical application” value (guinea pig [1]; 0 min) read?
Its value is “+”.

What about the “Response at 5 minutes after topical application” value (guinea pig [1]; 5 min) of the same compound?
Its value is “+”.

And the “Response at 10 minutes after topical application” value (guinea pig [1]; 10 min)?
The value was “−”.

And the “Response at 15 minutes after topical application” value (guinea pig [1]; 15 min)?
The value was “−”.

And the “Response at 20 minutes after topical application” value (guinea pig [1]; 20 min)?
Its value is “−”.

And the “Response at 30 minutes after topical application” value (guinea pig [1]; 30 min)?
Its value is “−”.

What about the “Response at 45 minutes after topical application” value (guinea pig [1]; 45 min) of the same compound?
Its value is “−”.

And the “Response at 60 minutes after topical application” value (guinea pig [1]; 60 min)?
Its value is “−”.

And the “Response at 120 minutes after topical application” value (guinea pig [1]; 120 min)?
Its value is “−”.

And the “Response at 0 minutes after intradermal injection” value (guinea pig [2]; 0 min)?
Its value is “+”.

And the “Response at 5 minutes after intradermal injection” value (guinea pig [2]; 5 min)?
The value was “−”.

What about the “Response at 10 minutes after intradermal injection” value (guinea pig [2]; 10 min) of the same compound?
Its value is “−”.

And the “Response at 15 minutes after intradermal injection” value (guinea pig [2]; 15 min)?
Its value is “−”.

What about the “Response at 20 minutes after intradermal injection” value (guinea pig [2]; 20 min) of the same compound?
Its value is “−”.

And the “Response at 30 minutes after intradermal injection” value (guinea pig [2]; 30 min)?
Its value is “−”.

What about the “Response at 45 minutes after intradermal injection” value (guinea pig [2]; 45 min) of the same compound?
The value was “−”.

And the “Response at 60 minutes after intradermal injection” value (guinea pig [2]; 60 min)?
The value was “−”.
